Test results from patent publication US20070039241A1, “Floatable granular substrate for culturing plant material” (GSF - Forschungszentrum fur Umwelt und Gesundheit, priority 2003, published 2007).

Tested on: barley seedlings
Experiment: Heavy metal uptake of barley seedlings on floating culture substrate or agar substrate (ICP-MS of leaves and roots)
Type: in vivo, Hordeum vulgare cv. Barke
Settings: for Concentration of heavy metal ions in barley seedlings, Shoot, Agar: grown on agar; for Concentration of heavy metal ions in barley seedlings, Shoot, Agar / Concentration of heavy metal ions in barley seedlings, Root, Floatable Substrate / Concentration of heavy metal ions in barley seedlings, Shoot, Floatable Substrate: 6 day old plants; for Concentration of heavy metal ions in barley seedlings, Root, Floatable Substrate / Concentration of heavy metal ions in barley seedlings, Shoot, Floatable Substrate: grown on floatable substrate; for Factor by which concentration in the roots was increased compared to shoot tissue: seedlings grown on floatable substrate
Experimental: MS-basal Medium or Hoagland's medium was supplemented with heavy metals as follows: stock solutions of Hg Cl2 (0.1 M) or Cd(NO3)2•4H2O (0.1 M) were applied to the autoclaved medium when it had cooled to about 55° C. such that final heavy metal-ion concentrations of 10, 20, 30 and 40 μM were obtained.
Agar culturing substrate was prepared by adding 1.5 wt/vol % agar (Sigma) to Hoagland's or MS-basal medium. After heating to 100° C., respective amounts of heavy metal salts were added when the medium had cooled down to […]. Then the mixture was poured into Phytotray II™ culture vessels (Sigma) and left to cool for subsequent use.
Barley caryopses prepared and seeded onto a floatable substrate layer as in Example 1. Alternatively, the caryopses were directly placed on culturing agar as described above.
Seedlings were grown as described, and leaves and roots of 6 day old plants were harvested and weighed to determine the fresh weight. Samples were shock-frozen in liquid nitrogen and stored at −80° C.
Total mercury and cadmium content of leaves and roots was determined by electrothermal vaporization inductively coupled plasma-mass spectrometry (Michalke et al., 1997).

SMILES | Concentration of heavy metal ions in barley seedlings, Shoot, Agar (added concentration 10 μM) [µM] | Concentration of heavy metal ions in barley seedlings, Shoot, Agar (added concentration 20 μM) [µM] | Concentration of heavy metal ions in barley seedlings, Shoot, Agar (added concentration 30 μM) [µM] | Concentration of heavy metal ions in barley seedlings, Shoot, Agar (added concentration 40 μM) [µM] | Concentration of heavy metal ions in barley seedlings, Root, Floatable Substrate (added concentration 10 μM) [µM] | Concentration of heavy metal ions in barley seedlings, Shoot, Floatable Substrate (added concentration 10 μM) [µM] | Concentration of heavy metal ions in barley seedlings, Root, Floatable Substrate (added concentration 20 μM) [µM] | Concentration of heavy metal ions in barley seedlings, Shoot, Floatable Substrate (added concentration 20 μM) [µM] | Concentration of heavy metal ions in barley seedlings, Root, Floatable Substrate (added concentration 30 μM) [µM] | Concentration of heavy metal ions in barley seedlings, Shoot, Floatable Substrate (added concentration 30 μM) [µM] | Concentration of heavy metal ions in barley seedlings, Root, Floatable Substrate (added concentration 40 μM) [µM] | Concentration of heavy metal ions in barley seedlings, Shoot, Floatable Substrate (added concentration 40 μM) [µM] | Factor by which concentration in the roots was increased compared to shoot tissue
[Cl][Hg][Cl] [Hg^2+, Hg Cl2] | 62 | 171 | 254 | 252 | 697 | 54 | 851 | 144 | 2060 | 239 | 2430 | 296 | 10
O.O.O.O.O=[N+]([O-])[O-].O=[N+]([O-])[O-].[Cd+2] [Cd^2+, Cd(NO3)2•4H2O] | 15 | 21 | 41 | 53 | 479 | 4 | 1270 | 27 | 1450 | 27 | 2880 | 59 | 60
